The test system of experiment [1] is ethanol ulcer in the gland gastric region. The experiment in a line: Ethanol ulcer. The class given is in vivo. The settings on record: rats fasted 24 hours, drug oral, 99.5% ethanol 1 ml/rat after one hour, size of ulcer one hour later; for Suppression: dose not given. As to the method:
Ethanol Ulcer Rats were fasted for 24 hours and orally administered with a drug. After one hour, 99.5% ethanol (1 ml/rat) was fed through oral administration. After one hour of ethanol administration, the abdomens of the rats were dissected and the size of ulcer in the gland gastric region was measured for each rat.

Another experiment has as its system Helicobacter pylori. The experiment in a line: Anti-Helicobacter-pylori action (agar plate dilution MIC). It counts as cell-based. The settings on record: clinically isolated 10 bacterial strains, agar plate dilution method. As to the method:
Anti-Helicobacter-pylori Action
Using clinically isolated 10 bacterial strains, the minimum inhibitory concentration (MIC) was measured according to the agar plate dilution method.

Where [2] appears, read: Helicobacter pylori, read-out: MIC.

In brackets after ≈: the same amount, converted by molar mass. Read-outs that look alike come from different tables or passages of the source.

As usually defined, the MIC is the least concentration at which growth counts as inhibited. In experiment [1], `O=S(=O)(c1ccc(Cl)cc1)N(CCN1CCCC1)c1ccccc1NCCOc1ccc(Cl)cc1` [Example 8, N-(4-Chlorobenzenesulfonyl)-N-[2-(1-pyrolidino)ethyl]-N′-[2-(4-chlorophenoxy)ethyl]-o-phenylenediamine] came in with a Suppression of 86%. This molecule also had an MIC with Helicobacter pylori of 1.56 to 6.25 µg/mL.
Turning to `O=S(=O)(c1ccc(Cl)cc1)N(CCO)c1ccccc1NCCOc1ccc(Cl)cc1` [Example 9, N-(4-Chlorobenzenesulfonyl)-N-(2-hydroxyethyl]-N′-[2-(4-chlorophenoxy)ethyl]-o-phenylenediamine], in experiment [1], the Suppression came out at 85%. Also, the MIC with Helicobacter pylori (setting [2]) is 25 to 50 µg/mL (≈ 51.9 to 104 µM).
Regarding `O=S(=O)(c1ccc(Cl)cc1)N(CCCc1ccncc1)c1ccccc1NCCOc1ccc(Cl)cc1` [Example 10, N-(4-Chlorobenzenesulfonyl)-N-[3-(4-pyridyl)propyl]-N′-[2-(4-chlorophenoxy)ethyl]-o-phenylenediamine], the Suppression in experiment [1] worked out at 82%. In addition, in the experiment on Helicobacter pylori (setting [2]), the minimal inhibitory concentration (MIC) was in the range of 25 to 100 µg/mL (≈ 44.9 to 180 µM).
On to `COc1ccc(S(=O)(=O)N(CCN)c2ccccc2NCCOc2ccc(Cl)cc2)cc1` [Example 11, N-(2-Aminoethyl)-N-(4-methoxybenzenesulfonyl)-N′-[2-(4-chlorophenoxy)ethyl]-o-phenylenediamine], for which the Suppression in experiment [1] turned out to be 96%.
On to `CNC(=NC#N)NCCOCCN(c1ccccc1NCCOc1ccc(Cl)cc1)S(=O)(=O)c1ccc(Cl)cc1` [Example 14, N-(4-Chlorobenzenesulfonyl)-N-[2-(2-cyano-3-methylguanidino)ethoxyethyl]-N′-[2-(4-chlorophenoxy)ethyl]-o-phenylenediamine], for which the MIC in the experiment with Helicobacter pylori (setting [2]) is 6.25 to 50 µg/mL (≈ 10.3 to 82.6 µM).
Consider `O=C(NCCOCCN(c1ccccc1NCCOc1ccc(Cl)cc1)S(=O)(=O)c1ccc(Cl)cc1)NC1CCCCC1` [Example 17, N-(4-Chlorobenzenesulfonyl)-N-[2-(2-cyclohexylureido)ethoxyethyl]-N′-[2-(4-chlorophenoxy)ethyl]-o-phenylenediamine], for which, in the experiment with Helicobacter pylori, the MIC lay within 25 to 50 µg/mL.
In experiment [1], `NCCOCCN(c1ccccc1NCCOc1ccc(Cl)cc1)S(=O)(=O)c1ccccc1` [Example 33] gave a Suppression of 83%.
Same read-out and setting: the figure for `Cc1ccc(S(=O)(=O)N(CCOCCN)c2ccccc2NCCOc2ccc(Cl)cc2)cc1` [Example 35, N-[2-(2-Amino)ethoxyethyl]-N-(p-toluenesulfonyl)-N′-[2-(4-chlorophenoxy)ethyl]-o-phenylenediamine] is 99%.
The same measure, in the same setting: the figure for `NCCOCCN(c1ccccc1NCCOc1ccc(Cl)cc1)S(=O)(=O)c1ccc(F)cc1` [Example 41, N-[2-(2-Amino)ethoxyethyl]-N-(4-fluorobenzenesulfonyl)-N′-[2-(4-chlorophenoxy)ethyl]-o-phenylenediamine] is 93%; for `NCCOCCN(c1ccccc1NCCOc1ccc(F)cc1)S(=O)(=O)c1ccc(Cl)cc1` [Example 47, N-[2-(2-Amino)ethoxyethyl]-N-(4-chlorobenzenesulfonyl)-N′-[2-(4-fluorophenoxy)ethyl]-o-phenylenediamine] it is 100%.
On to `NCCN(c1ccccc1NCCNc1ccc(Cl)cc1)S(=O)(=O)c1ccc(Cl)cc1` [Example 60, N-(2-Aminoethyl)-N-(4-chlorobenzenesulfonyl)-N′-[2-(4-chlorophenylamino)ethyl]-o-phenylenediamine], for which the MIC with Helicobacter pylori (setting [2]) is 6.25 to 25 µg/mL (≈ 13 to 52.1 µM).
Still for that read-out and setting: the figure for `NCCN(c1ccccc1NCC=Cc1ccc(Cl)cc1)S(=O)(=O)c1ccc(Cl)cc1` [Example 62, N-(2-Aminoethyl)-N-(4-chlorobenzenesulfonyl)-N′-(4-chlorocinnamyl)-o-phenylenediamine] is 1.56 to 12.5 µg/mL (≈ 3.27 to 26.2 µM); for `NCCN(c1ccccc1NCCSc1ccc(Cl)cc1)S(=O)(=O)c1ccc(Cl)cc1` [Example 65, N-(2-Aminoethyl)-N-(4-chlorobenzenesulfonyl)-N′-[2-(4-Chlorophenylthio)ethyl]-o-phenylenediamine] it is 6.25 to 25 µg/mL (≈ 12.6 to 50.4 µM).
On to `O=S(=O)(Nc1cccnc1NCCNc1ccc(Cl)cc1)c1ccc(Cl)cc1` [Example 77], for which the MIC against Helicobacter pylori is 6.25 to 12.5 µg/mL.
`NCCN(c1cccnc1N1CCN(c2ccc(Cl)cc2)C(=O)C1=O)S(=O)(=O)c1ccc(Cl)cc1` [Example 92, 3-[N-(4-Chlorobenzenesulfonyl)-N-(2-aminoethyl)]amino-2-[4-(4-chlorophenyl)-2,3-dioxo-1-piperadino]pyridine] displayed a minimal inhibitory concentration (MIC) in the experiment with Helicobacter pylori above 100 µg/mL.
In experiment [1], `O=S(=O)(c1ccc(Cl)cc1)N(CCN1CCNCC1)c1cccnc1NCCNc1ccc(Cl)cc1` [Example 97, 3-[N-(4-Chlorobenzenesulfonyl)-N-[2-(1-piperazinyl)ethyl]]amino-2-[2-(4-chlorophenyl)aminoethyl]aminopyridine] had a Suppression of 81%. The molecule further yielded a minimal inhibitory concentration (MIC) in the experiment with Helicobacter pylori of 25 to 100 µg/mL.
As usually defined, the ED50 is the dose that gives a 50% effect, or the effect in half of the subjects. With `NCCN(c1cccnc1NCCOc1ccc(Cl)cc1)S(=O)(=O)c1ccc(Cl)cc1` [Example 106, 2-[2-(4-Chlorophenoxy)ethyl]amino-3-[N-(2-aminoethyl)-N-(4-chlorobenzenesulfonyl)]aminopyridine], in experiment [1], the ED50 was 8.4 mg/kg and the Suppression was found to be 98%.
In the case of `NCCN(c1cccnc1NCCN(c1ccc(Cl)cc1)S(=O)(=O)c1ccc(Cl)cc1)S(=O)(=O)c1ccc(Cl)cc1` [Example 111, 2-[2-[N-(4-Chlorophenyl)-N-(4-chlorobenzenesulfonyl)]aminoethyl]amino-3-[N-(2-aminoethyl)-N-(4-chlorobenzenesulfonyl)]aminopyridine], in experiment [1], the Suppression worked out at 100%. The same molecule returned an MIC with Helicobacter pylori of 25 µg/mL (≈ 38.2 µM).
`COc1ccc(NCCNc2ncccc2N(CCN)S(=O)(=O)c2ccc(OC)cc2)cc1` [Example 112, 3-[N-(2-Aminoethyl)-N-(4-methoxybenzenesulfonyl)]amino-2-[2-(4-methoxyphenyl)aminoethyl]aminopyridine] yielded an MIC against Helicobacter pylori of 12.5 to 50 µg/mL.
On to `NCCN(c1cccnc1OCCNc1ccc(Cl)cc1)S(=O)(=O)c1ccc(Cl)cc1` [Example 113, 2-[2-(4-Chlorophenyl)aminoethoxy]-3-[N-(2-aminoethyl)-N-(4-chlorobenzenesulfonyl)]aminopyridine], for which, in experiment [1], the Suppression amounted to 87%. Also, the MIC in the experiment on Helicobacter pylori fell in the range of 25 to 50 µg/mL.
For `Cc1ccc(NCCNc2ncccc2N(CCN)S(=O)(=O)c2ccc(C)cc2)cc1` [Example 114, 3-[N-(2-Aminoethyl)-N-(p-toluenesulfonyl)]amino-2-[2-(p-tolyl)aminoethyl]aminopyridine], the MIC in the experiment with Helicobacter pylori is 12.5 to 25 µg/mL.
`CCN(CCNc1ncccc1N(CCN)S(=O)(=O)c1ccc(Cl)cc1)c1ccc(Cl)cc1` [Example 116, 2-[2-[N-(4-Chlorophenyl)-N-ethyl]aminoethyl]amino-3-[N-(2-aminoethyl)-N-(4-chlorobenzenesulfonyl)]aminopyridine]: the Suppression in experiment [1] was 99%. In the experiment on Helicobacter pylori, this molecule came in with a minimum inhibitory concentration (MIC) of 6.25 to 12.5 µg/mL.
On to `NCCN(c1ccccc1OCCNc1ccc(Cl)cc1)S(=O)(=O)c1ccc(Cl)cc1` [Example 122, 1-[2-(4-Chlorophenyl)aminoethoxy]-2-[N-(2-aminoethyl)-N-(4-chlorobenzenesulfonyl)]aminobenzene], for which the Suppression in experiment [1] was determined as 99%. The minimum inhibitory concentration (MIC) against Helicobacter pylori lay in the range of 12.5 to 25 µg/mL.
`CN(C)CCN(c1cccnc1N1CCN(c2ccc(Cl)cc2)CC1)S(=O)(=O)c1ccc(Cl)cc1` [Example 138, 2-[4-(4-Chlorophenyl)-1-piperazino]-3-[N-(2-dimethylaminoethyl)-N-(4-chlorobenzenesulfonyl)]aminopyridine] displayed a minimal inhibitory concentration (MIC) in the experiment with Helicobacter pylori of 3.13 to 12.5 µg/mL.

For the origin of these results see patent US6403607B1, “Sulfonamide derivatives and drugs containing the same as the active ingredient” (priority 1998, dated 2002).
